These are literature values, as cited in US20090105490A1, “Polymorphic forms of ramelteon and processes for preparation thereof” (priority 2007, published 2009).

Like-named read-outs stand apart in the source and are kept apart here.

Data set [1] addresses melatonin MT1 receptor (Homo sapiens, UniProt P48039). Particulars: melatonin receptor agonist.
Data set [2] addresses T1, melatonin MT2 receptor (Homo sapiens, UniProt P49286).
T1 sequence (P49286 1-362): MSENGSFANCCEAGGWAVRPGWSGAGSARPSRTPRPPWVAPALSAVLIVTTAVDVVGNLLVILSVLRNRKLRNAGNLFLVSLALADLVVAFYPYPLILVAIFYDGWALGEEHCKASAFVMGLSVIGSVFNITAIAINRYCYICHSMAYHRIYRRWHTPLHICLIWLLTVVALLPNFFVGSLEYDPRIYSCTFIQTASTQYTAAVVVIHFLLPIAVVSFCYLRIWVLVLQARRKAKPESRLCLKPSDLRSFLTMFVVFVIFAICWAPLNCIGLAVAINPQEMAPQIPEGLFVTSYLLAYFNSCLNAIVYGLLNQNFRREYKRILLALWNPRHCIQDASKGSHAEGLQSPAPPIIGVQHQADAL
Particulars: melatonin receptor agonist.

Data set [3] deals with MT3 receptor. To be noted: MT1 and MT2 versus MT3.

melatonin MT1 receptor, sequence (P48039 whole entry): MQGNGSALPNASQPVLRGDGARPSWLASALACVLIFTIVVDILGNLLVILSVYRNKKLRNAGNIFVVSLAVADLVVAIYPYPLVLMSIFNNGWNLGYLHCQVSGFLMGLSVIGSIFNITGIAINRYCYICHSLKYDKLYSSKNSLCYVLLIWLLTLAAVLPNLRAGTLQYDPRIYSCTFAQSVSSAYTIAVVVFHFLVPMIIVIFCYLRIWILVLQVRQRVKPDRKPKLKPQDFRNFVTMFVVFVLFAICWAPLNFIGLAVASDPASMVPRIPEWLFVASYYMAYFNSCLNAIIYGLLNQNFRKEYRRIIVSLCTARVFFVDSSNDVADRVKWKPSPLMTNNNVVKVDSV

Turning to `CCC(=O)NCC[C@@H]1CCc2ccc3c(c21)CCO3` [Ramelteon, (S)-N-[2-(1,6,7,8-tetrahydro-2H-indeno-[5,4-b]furan-8-yl)ethyl]propionamide], in data set [1], the “affinity for melatonin MT1 receptor” value is listed as “high affinity”. Besides, in data set [2], the “affinity for melatonin MT2 receptor” value was “high affinity”. Also, the “selectivity over the MT3 receptor” value in data set [3] is listed as “selectivity over the MT3 receptor”. Besides, the solubility result was “freely soluble” (1-octanol); “freely soluble” (DMSO); “slightly soluble” (aqueous buffers); “freely soluble” (ethanol); “freely soluble” (methanol); “slightly soluble” (water).
